The record followed here is paper PMC5789826, “Structure-guided design of an Hsp90β N-terminal isoform-selective inhibitor” (Nature Communications, 2018).

Several values for one entry are separate records, joined by “and”; a condition that tells them apart may be missing. Equal values may be shown once. Read-outs that look alike come from different tables or passages of the source. Some results are limits rather than exact numbers.

One test addresses Hsp90β (Homo sapiens, UniProt P08238). Nature of the test: Fluorescence polarization assay (FITC-GDA tracer displacement), Hsp90β. Format: binding. The following applies: for selectivity for Hsp90β: Hsp90β versus Hsp90α, from Kd values; for % Polarization to DMSO control: triplicate wells. Here is the method:
(§1) Compounds were tested in triplicate wells (1% DMSO final concentration). For each plate, wells containing buffer only (background), tracer in buffer only (low polarization control), and protein and tracer in buffer with 1% DMSO (high polarization control) were included. Plates were incubated at 4 °C with rocking for 24 h. […] Polarization values were correlated to % tracer bound and compound concentrations. The concentration at which the tracer was 50% displaced by the inhibitor was determined using Graphpad Prism.
(Fluorescence polarisation rises when a labelled molecule tumbles more slowly, as on binding a larger partner.)

In the next test the target is Hsp90α (Homo sapiens, UniProt P07900). Nature of the test: Fluorescence polarization assay (FITC-GDA tracer displacement), Hsp90α. The test is classed as binding. The following applies: for % Polarization to DMSO control: triplicate wells. Here is the method:
as §1

Setting [1] is: fluorescence polarization, apparent Kd, read-out: Kd Hsp90β.
The mark [2] stands for this setting: fluorescence polarization, apparent Kd, read-out: Kd Hsp90α.

Sequence of Hsp90β (P08238 whole entry): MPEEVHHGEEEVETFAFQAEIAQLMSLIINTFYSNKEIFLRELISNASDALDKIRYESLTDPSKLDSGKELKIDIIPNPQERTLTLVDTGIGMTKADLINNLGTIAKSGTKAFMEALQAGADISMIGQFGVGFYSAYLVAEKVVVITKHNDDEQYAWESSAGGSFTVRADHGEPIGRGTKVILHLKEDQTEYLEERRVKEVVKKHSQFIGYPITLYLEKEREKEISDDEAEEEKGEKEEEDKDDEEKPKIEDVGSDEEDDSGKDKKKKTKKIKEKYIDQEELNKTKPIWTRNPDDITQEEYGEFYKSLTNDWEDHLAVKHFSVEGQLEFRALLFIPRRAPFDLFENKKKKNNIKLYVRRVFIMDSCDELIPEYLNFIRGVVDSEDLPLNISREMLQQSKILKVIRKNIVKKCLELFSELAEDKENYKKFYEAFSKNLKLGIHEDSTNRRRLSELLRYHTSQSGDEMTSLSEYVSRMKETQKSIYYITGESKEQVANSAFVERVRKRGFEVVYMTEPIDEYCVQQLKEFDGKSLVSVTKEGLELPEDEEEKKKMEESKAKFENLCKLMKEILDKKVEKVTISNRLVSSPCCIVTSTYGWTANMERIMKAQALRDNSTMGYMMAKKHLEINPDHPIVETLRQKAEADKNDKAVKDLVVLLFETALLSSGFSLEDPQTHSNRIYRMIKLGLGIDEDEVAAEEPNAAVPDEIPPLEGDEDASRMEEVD

As for `CC(C)c1ccc(O)c(C(=O)N2Cc3ccccc3C2)c1` [Compound 1], the “selectivity for Hsp90β” value on Hsp90β is ~ 2 fold. Further, the “% Polarization to DMSO control” value on Hsp90β (Suppl Table 11, 1 0.5 μM) is 68.22% and 73.53% and 68.55%; on Hsp90β (Suppl Table 11, 1 1 μM), 60.93% and 62.75% and 64.41%; at Hsp90β (Suppl Table 11, 1 5 μM) it was 23.80% and 23.30% and 19.99%; at Hsp90β (Suppl Table 11, 1 10 μM), 15.34% and 18.00% and 10.37%; on Hsp90β (Suppl Table 11, 1 25 μM), 12.53% and 4.40% and 5.73%; on Hsp90β (Suppl Table 11, 1 50 μM), 5.73% and 5.90% and 4.40%. The “% Polarization to DMSO control” value was 8.22% and 4.90% and 9.38% on Hsp90β (Suppl Table 11, 1 100 μM); 84.59% and 83.37% and 82.16% at Hsp90α (Suppl Table 10, 1 0.5 μM); 70.63% and 71.84% and 71.69% on Hsp90α (Suppl Table 10, 1 1 μM); 31.78% and 33.90% and 37.85% on Hsp90α (Suppl Table 10, 1 5 μM); 22.83% and 17.67% and 25.25% at Hsp90α (Suppl Table 10, 1 10 μM); 16.45% and 15.39% and 18.58% on Hsp90α (Suppl Table 10, 1 25 μM). Besides, the “% Polarization to DMSO control” value was 11.45% and 12.05% and 8.56% at Hsp90α (Suppl Table 10, 1 50 μM); 9.47% and 8.26% at Hsp90α (Suppl Table 10, 1 100 μM). Moreover, the Kd turned out to be 1630 nM at Hsp90β (setting [1]) and 3.21 µM at Hsp90α (setting [2]).
With `CC(C)c1cc(C(=O)N2Cc3ccccc3C2)c(O)cc1CC#N` [Compound 2], the Kd on Hsp90β amounted to 970 nM; on Hsp90α it was 2.28 ± 0.12 µM. The “selectivity for Hsp90β” value at Hsp90β is ~ 2.5 fold. Also, the “% Polarization to DMSO control” value is 90.36% and 90.17% and 91.52% on Hsp90β (Suppl Table 8, 2 0.1 μM); 65.62% and 68.90% and 70.45% at Hsp90β (Suppl Table 8, 2 0.5 μM); 47.25% and 50.54% and 49.96% on Hsp90β (Suppl Table 8, 2 1 μM); 12.84% and 16.90% and 23.47% at Hsp90β (Suppl Table 8, 2 5 μM); 4.14% and 8.59% and 10.52% at Hsp90β (Suppl Table 8, 2 10 μM); 95.62% and 98.23% and 93.53% on Hsp90α (Suppl Table 9, 2 0.1 μM). Also, the “% Polarization to DMSO control” value on Hsp90α (Suppl Table 9, 2 0.5 μM) was 78.89% and 78.37% and 75.58%; on Hsp90α (Suppl Table 9, 2 1 μM), 66.18% and 68.79% and 67.22%; at Hsp90α (Suppl Table 9, 2 5 μM) it was 22.97% and 29.94%.
For the compound `COCc1cc(O)c(C(=O)N2Cc3ccccc3C2)cc1C(C)C` [Compound 3], the Kd is more than 25000 nM at Hsp90β and more than 25 µM on Hsp90α. Further, the “binding to Hsp90β” value at Hsp90β (at 10 μM) is given as “did not bind”. The “binding to Hsp90α” value at Hsp90α (at 10 μM) is “did not bind”.
Turning to `CC(C)c1cc(C(=O)N2Cc3ccccc3C2)c(O)cc1C=O` [Compound 4], on Hsp90α (Kd Hsp90α), the Kd is 1.55 µM and 1.22 µM.
With `CC(C)c1cc(C(=O)N2Cc3ccccc3C2)c(O)c(CO)c1O` [Compound 5], on Hsp90β (Kd Hsp90β, fluorescence polarization, apparent Kd), the Kd came out at 4270 nM. Also, the “% Polarization to DMSO control” value at Hsp90β (Suppl Table 5, 5 1 μM) was 73.89% and 76.47% and 73.55%; at Hsp90β (Suppl Table 5, 5 5 μM) it was 48.11% and 44.50% and 46.91%; on Hsp90β (Suppl Table 5, 5 10 μM), 27.82% and 30.40% and 31.26%; at Hsp90β (Suppl Table 5, 5 25 μM), 13.21% and 21.12% and 17.17%; at Hsp90β (Suppl Table 5, 5 50 μM) it was 21.98% and 21.29%.
`CC(C)c1cc(C(=O)N2Cc3ccc(F)cc3C2)c(O)c2cnoc12` [Compound 6b]: the “selectivity over Hsp90α and Grp94” value on Hsp90β (Hsp90β versus Hsp90α and Grp94) is listed as ~ 50 fold. In addition, the “% Polarization to DMSO control” value is 80.92% and 79.55% and 79.72% on Hsp90β (Suppl Table 13, 6b 0.125 μM); 44.66% and 45.17% on Hsp90β (Suppl Table 13, 6b 0.5 μM); 27.05% and 23.28% and 31.32% at Hsp90β (Suppl Table 13, 6b 1 μM); 101. 64% and 98.69% and 98.03% on Hsp90α (Suppl Table 12, 6b 0.125 μM); 97.54% and 93.76% and 98.36% at Hsp90α (Suppl Table 12, 6b 0.5 μM); 98.19% and 97.05% and 96.39% on Hsp90α (Suppl Table 12, 6b 1 μM). In addition, the “% Polarization to DMSO control” value at Hsp90α (Suppl Table 12, 6b 3 μM) is 87.85% and 82.27% and 73.25%; at Hsp90α (Suppl Table 12, 6b 10 μM) it was 66.68% and 53.88% and 63.89%; on Hsp90α (Suppl Table 12, 6b 25 μM), 41.57% and 41.90% and 42.23%; at Hsp90α (Suppl Table 12, 6b 75 μM) it was 20.07% and 24.50% and 20.73%. The Kd at Hsp90β (fluorescence polarization, apparent Kd, value in nM, read-out: Kd Hsp90β) turned out to be 180 nM; on Hsp90β (setting [1]), 440 nM; on Hsp90α (setting [2]), 18.2 µM.
